Data as given in patent US8470835B2, “Pyrimidinecarboxamide derivatives as inhibitors of Syk kinase” (Glaxo Group Limited, priority 2009, dated 2013).
Read-outs that look alike come from different tables or passages of the source.

Columns and labels:
allergic rhinitis [1] = conditions: dosed intranasally; cited from earlier work
allergic rhinitis [2] = conditions: phase II; cited from earlier work
[3] = system: patients with relapsed or refractory B-Cell non-Hodgkin's lymphoma (NHL); conditions: cited from earlier work
[4] = biological target: Recombinant human VEGFR2 (KDR) (Homo sapiens (Human), UniProt P35968); test: VEGFR2 (KDR) enzyme assay, TR-FRET kinase assay (3); format: biochemical; conditions: read-out: Vegfr enzyme assay (3) IC50
Chain of Recombinant human VEGFR2 (KDR) (P35968 786-1356): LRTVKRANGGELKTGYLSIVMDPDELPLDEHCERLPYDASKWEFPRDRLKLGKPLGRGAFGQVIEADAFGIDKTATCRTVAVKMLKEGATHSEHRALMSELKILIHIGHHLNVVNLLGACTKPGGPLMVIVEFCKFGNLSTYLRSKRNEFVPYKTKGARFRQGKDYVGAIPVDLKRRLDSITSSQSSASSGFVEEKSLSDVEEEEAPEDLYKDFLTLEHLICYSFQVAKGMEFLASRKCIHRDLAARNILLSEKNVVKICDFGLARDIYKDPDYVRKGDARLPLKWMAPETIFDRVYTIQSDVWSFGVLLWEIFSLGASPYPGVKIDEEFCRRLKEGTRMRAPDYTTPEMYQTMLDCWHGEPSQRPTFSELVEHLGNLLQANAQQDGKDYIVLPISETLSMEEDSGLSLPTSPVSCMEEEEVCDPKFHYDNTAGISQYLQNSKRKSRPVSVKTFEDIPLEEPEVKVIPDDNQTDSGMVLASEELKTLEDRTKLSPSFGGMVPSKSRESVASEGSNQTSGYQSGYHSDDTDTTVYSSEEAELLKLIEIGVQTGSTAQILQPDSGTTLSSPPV
Experimental: VEGFR2 (KDR) Enzyme Assay—Time-resolved Fluorescence Resonance Energy Transfer Kinase Assay
Recombinant human VEGFR2 (KDR) intracellular domain (including the entire kinase domain) was expressed as a GST-6His-tagged protein*. The activity of VEGFR2 was assessed using a time-resolved fluorescence resonance energy transfer (TR-FRET) assay. Test compounds at the desired concentrations in 100% DMSO or 100% DMSO vehicle were added in 0.1 μL to a Greiner low-volume, 384-well, black plate (#784076). The plate was centrifuged minimally at 1000 RPM for 1 min. to force all of the liquid to the bottom of the wells prior to addition of any assay reagents. *Purification of Recombinant GST-6His-VEGFR2
VEGFR2 (100 nM typically) was activated at room temperature for 20 min. in the presence of 100 mM HEPES, pH 7.5, 10 mM MgCl2, 100 μM ATP, 300 μM DTT, and 0.1 mg/mL BSA. […] The solution of activated VEGFR2 was diluted 100-fold in 200 mM HEPES, pH 7.5, 0.2 mg/mL BSA, and 0.6 mM DTT. The VEGFR2 catalyzed reaction was initiated by the addition of 5 μL of the diluted, activated VEGFR2. […] After incubation for 10 min. at room temperature, phosphorylation of the biotinylated peptide substrate was measured as a ratio of specific 665 nm energy transfer signal to reference europium 615 nm signal using a Viewlux 1430 ultraHTS Microplate Imager (PerkinElmer, Turku, Finland).

Ramos B cells = test: Ramos pErk assay (4); format: cell-based; conditions: Homo sapiens, anti-IgM stimulated
Experimental: Ramos B cells (human B cells of Burkitt's Lymphoma) are stimulated using anti-IgM. […] As a result Erk is phosphorylated and following cell lysis is detected by an immune capture assay.
Stimulation of Ramos Cells with Anti-IqM
Cells were plated at a density of 5×10^5/well in a volume of 25 μl assay medium (RPMI containing 10% heat inactivated foetal calf serum, 1% L-glutamine and 1% Penicillin/Streptomycin) in 96 v-well polypropylene plates. […] Cells are lysed by the addition of 55 μL 2×RIPA lysis buffer for 2 h at 4° C.
50 μl cell lysate was transferred to a 96 well MSD plate coated with anti-pErk1/2 (Thr/Thy: 202/204; 185/187) capture antibody and incubated for 16 hours at 4° C. The plate was washed and an anti-pErk detection antibody added (25 μl/well) for 2 h at room temperature. This was removed, 150 μL MSD read buffer added and the resultant electrochemiluminescence signal measured.

Whole blood B cells = test: CD69 whole blood assay (6); format: cell-based; conditions: Homo sapiens, B-cell, all data points
Experimental: 6. CD69 Whole Blood Assay
Whole blood B cells are stimulated ex-vivo using anti-IgM. […] The subsequent autophosphorylation of Syk leads to initiation of a signalling cascade resulting in B cell activation as indicated by expression of the activation marker CD69 on the cell surface. CD20/CD69+ve whole blood B cells are detected by flow cytometry.
Stimulation of Whole Blood B Cells with Anti-IqM
100 μl heparinised human blood was added to a 5 ml polypropylene tube containing 1 μl appropriately diluted compound solution and incubated for 30 min at 37° C. with 5% CO2. B cells were stimulated with 10 μl Fab′2 fragments of goat anti-human IgM (67.5 μg/ml final) for a further 3.5 h under the conditions previously described. The red blood cells were lysed and all other cells fixed by the addition of 2 ml Lyse/Fix buffer for 10 min at room temperature.
The cells were stained using a cocktail of mouse anti-human CD20 FITC and mouse anti-human CD69 APC conjugated antibodies. CD20/CD69+ve B cells present in the sample were detected by flow cytometry.
Compound dilutions were prepared using the Biomek 2000 automated robotic pipetting system.

B lymphoma (BKS-2) = conditions: mouse, in vivo; cited from earlier work

Oc1cccc(Nc2ncc(F)c(Nc3cccc(O)c3)n2)c1 [Example R112]
change in PGD2 (allergic rhinitis [1]): statistically significant decrease | clinical safety (allergic rhinitis [1]): safe across a range of indicators | efficacy versus placebo (allergic rhinitis [2]): lack of efficacy versus placebo

COc1cc(Nc2ncc(F)c(Nc3ccc4c(n3)N(COP(=O)(O)O)C(=O)C(C)(C)O4)n2)cc(OC)c1OC [Example R788, fostamatinib disodium]
clinical efficacy ([3]; patients with DLBCL and CLL/SLL): therapeutic benefit | tolerability in patients ([3]; relapsed or refractory B-Cell NHL): well-tolerated

Cc1cccc(Nc2nc(N[C@@H]3CCCC[C@@H]3N)ncc2C(N)=O)c1 [Reference example 1]
IC50 [4]: 6.3 µM | IC50 (Ramos B cells; read-out: RAMOS pErk assay (4) IC50): 32 nM | IC50 (Ramos B cells; read-out: RAMOS pErk assay (4) pIC50 (converted)): 31.6 nM | IC50 (Whole blood B cells; read-out: CD69 whole blood assay (6) IC50): 500 nM | IC50 (Whole blood B cells; read-out: CD69 whole blood assay (6) pIC50 (converted)): 501 nM

COc1cc(/C=C/C(=O)CC(=O)/C=C/c2ccc(O)c(OC)c2)ccc1O [curcumin]
tumour burden as measured by the total splenocyte number (B lymphoma (BKS-2)): significant reduction of tumour burden
